≈ marks a conversion by molar mass, not a printed value. Like-named read-outs stand apart in the source and are kept apart here.
Key:
[1] = system: methicillin-resistant Staphylococcus pseudintermedius; assay: MIC by broth microdilution against MRSP clinical isolates; type: cell-based; details: six MRSP isolates, triplicate
Protocol: (§1) Fifteen isolates of S. pseudintermedius (nine MSSP and six MRSP), identified at the Indiana Animal Disease Diagnostic Laboratory from specimens collected from dogs admitted to the small animal teaching hospital at Purdue University, were included in the study. The specimens were not collected specifically for this research study but were obtained from patients admitted to the hospital for treatment. Clinical specimens were inoculated onto 5% sheep blood agar and incubated at 35°C for 18–24 hours. Standard methods including examination of colony morphology and hemolysis and biochemical tests such as tube coagulase, Voges-Proskauer (VP) and fermentation tests for maltose, trehalose and lactose, were used in addition to matrix-assisted laser desorption ionization time of flight mass spectrometry to identify isolates. Antimicrobial susceptibility was determined by broth microdilution using the SensiTitre (Thermofisher Scientific).
(§2) Bacteria were prepared in phosphate-buffered saline (PBS) until a McFarland standard of 0.5 was achieved. The solution was subsequently diluted 1:300 in Mueller-Hinton broth (MHB) to reach a starting inoculum of 1 × 10^5 colony-forming units (CFU/mL). Bacteria were then transferred to a 96-well microtiter plate. Thiazole compounds and antibiotics were added (in triplicate) to wells in the first row of the microtiter plate and then serially diluted along the vertical axis. […] The MIC was categorized as the concentration where there was no visible growth of bacteria observed.

[2] = human liver microsomes; cited from earlier work
[3] = Microsomal stability analysis in dog liver microsomes; type: in vitro ADME; details: pH 7.4, dog liver microsomes
Protocol: The reaction contained microsomal protein in 100 mM potassium phosphate, 2 mM NADPH, 3 mM MgCl2, pH 7.4. A control was run for each test agent omitting NADPH to detect NADPH-free degradation. At 0, 10, 20, 40, and 60 minutes, an aliquot was removed from each experimental and control reaction and mixed with an equal volume of ice-cold Stop Solution (methanol containing haloperidol, diclofenac, or other internal standard). Stopped reactions were incubated at least 10 minutes at -20°C, and an additional volume of water was subsequently added. The samples were centrifuged to remove precipitated protein, and the supernatants were analyzed by LC/MS/MS to quantitate the remaining parent. Data were converted to % remaining by dividing by the time zero concentration value. Data were then fitted to a first-order decay model to determine half-life. Intrinsic clearance was calculated from the half-life and the protein concentrations, as has been described elsewhere.

[4] = Kinetic (turbidimetric) solubility in PBS; type: physicochemical; details: aqueous buffer, kinetic from dmso stock; phosphate-buffered saline; highest concentration with no precipitate; read-out: Solubility Limit
Protocol: The absorbance of the PBS-containing plate was measured prior to addition of the test agents to determine the background absorbance. After 2 hours, the presence of precipitate was detected by turbidity (absorbance at 540 nm).

[5] = system: murine macrophage cell line (J774.A1); assay: In vitro cytotoxicity analysis (MTS assay); type: cell-based; details: 10 μg/mL, J774.A1, two hours
Protocol: Compounds were assayed at concentrations of 5 μg/mL, 10 μg/mL, 20 μg/mL, and 40 μg/mL against a murine macrophage cell line (J774.A1) (ATCC TIB-67, American Type Culture Collection (ATCC), Manassas, VA, USA) to determine the potential toxic effect in vitro. Cells were cultured in Dulbeco’s modified Eagle’s medium (Sigma-Aldrich, St. Louis, MO, USA) with 10% fetal bovine serum (USA Scientific, Inc.) at 37°C with 5% CO2. Controls received DMSO alone at a concentration equal to that in drug-treated cell samples. The cells were incubated with the compounds in a 96-well plate at 37°C and 5.0% CO2 for two hours prior to addition of the assay reagent MTS 3-(4,5-dimethylthiazol-2-yl)-5-(3-carboxymethoxyphenyl)-2-(4-sulfophenyl)-2H-tetrazolium) (Promega, Madison, WI, USA). Absorbance readings were taken using a kinetic ELISA microplate reader (Molecular Devices, Sunnyvale, CA, USA). The quantity of viable cells after treatment with each compound was expressed as a percentage of the control, DMSO.
All statistical analyses were performed with GraphPad Prism 6.0 (GraphPad Software, La Jolla, CA). Data generated from cytotoxicity analysis of the thiazole compounds against J774.A1 cells and the 260 and 280 nm cell leakage analysis were analyzed using one-way ANOVA, with post hoc Tukey's multiple comparisons test (P < 0.05).

MRSP SP3 [6] = assay: Time-kill analysis against MRSP; type: cell-based, Staphylococcus pseudintermedius; details: 4 × MIC, MRSP SP3, 24 hour incubation at 37°C
Protocol: MRSP SP3 cells in late logarithmic growth phase were diluted to ~1 × 10^6 CFU/mL and exposed to concentrations equivalent to 4 × MIC (in triplicate) of thiazole compounds 1–6 and rifampicin in MHB. Samples (20 μL) were collected after 0, 2, 4, 6, 8, 10, 12, and 24 hours of incubation at 37°C and subsequently serially diluted in PBS. Bacteria were then transferred to TSA plates and incubated at 37°C for 20–24 hours before viable CFU/mL values were determined.

[7] = system: methicillin-resistant Staphylococcus pseudintermedius; assay: MBC determination against MRSP clinical isolates; type: cell-based; details: six MRSP isolates
Protocol: The MBC was determined by plating 5 μL from wells on the 96-well microtiter plate (where the MIC was determined) where no growth was observed onto Tryptic soy agar (TSA) plates. […] The MBC was categorized as the concentration where ≥99% reduction in bacterial cell count was observed.

MRSP SP3 [8] = assay: Checkerboard assay of thiazole compounds with oxacillin; type: cell-based, Staphylococcus pseudintermedius
Protocol: The relationship between the thiazole compounds and oxacillin was assessed via a standard checkerboard assay. Bacteria (MRSP SP3) equivalent to a McFarland standard of 0.5 were prepared in PBS. The bacteria were next diluted in MHB to achieve a starting cell density of 1 × 10^5 CFU/mL. MHB was transferred to all wells of a 96-well microtiter plate. […] Oxacillin was serially diluted along the abscissa of the microtiter plate while the thiazole compound was serially diluted along the ordinate. The plate was incubated for 22–24 hours at 37°C. The MIC of the test compound in combination with oxacillin was determined as the lowest concentration of each compound/antibiotic where no visible growth of bacteria was observed. The fractional inhibitory concentration index (ƩFIC) was calculated for each combination as described previously. A synergistic relationship was classified as an FIC index less than or equal to 0.5. […]

[9] = system: methicillin-sensitive Staphylococcus pseudintermedius; assay: MIC by broth microdilution against MSSP clinical isolates; type: cell-based; details: nine MSSP isolates, triplicate
Protocol: as §1, §2

## CCCCC#Cc1ccc(-c2nc(C)c(/C(C)=N/NC(=N)N)s2)cc1 [Compound 3]
[1]; Staphylococcus pseudintermedius, read-out: MIC50
  MIC50: 0.48 µg/mL (≈ 1.36 µM)
[1]
  MIC Range: 0.18 to 1.41 µg/mL
[2]
  clearance rate: 3.7 µL/min/mg
  half-life: more than 240 minutes
[3]; NADPH omitted, read-out: NADPH-free CLint
  microsomal CLint: 6.6 µL/min/mg
[3]; NADPH omitted, read-out: NADPH-free T1/2
  half-life: 5.85 h
[3]; with NADPH, duplicate, read-out: NADPH-dependent CLint
  microsomal CLint: 18.7 µL/min/mg
[3]; with NADPH, duplicate, read-out: NADPH-dependent T1/2
  half-life: 2.05 h
[4]
  solubility at 2 h: 5.51 µg/mL (≈ 15.6 µM)
[5]
  toxicity to murine macrophage cells (MTS assay): not toxic
MRSP SP3 [6]
  time required to completely eliminate MRSP: within two hours
[7]; Staphylococcus pseudintermedius, read-out: MBC50
  MBC: 0.71 µg/mL (≈ 2.01 µM)
[7]
  MBC Range: 0.18 to 1.41 µg/mL
MRSP SP3 [8]; checkerboard assay
  relationship with oxacillin: synergistic
MRSP SP3 [8]; combination with oxacillin, ≤ 0.5 synergistic, > 0.5 to ≤ 4.0 indifference, > 4 antagonistic
  ƩFIC: 0.38
[9]; lowest concentration inhibiting growth in 50% of isolates
  MIC50: 0.71 µg/mL (≈ 2.01 µM)
[9]; read-out: MIC Range
  MIC: 0.18 to 0.94 µg/mL (≈ 0.509 to 2.66 µM)

Source: article PMC4472782, “Antibacterial Characterization of Novel Synthetic Thiazole Compounds against Methicillin-Resistant Staphylococcus pseudintermedius” (PLoS ONE, 2015)
